In patent EP0659751A1, “Optically active azole derivatives, their production and use” (TAKEDA CHEMICAL INDUSTRIES, LTD., priority 1993, dated 1995):

Tested on: Candida albicans TA
Assay: protective effect against experimental infection in mice
Format: in vivo, Crj:CDF₁ mice
Conditions: po, 168 h; mice inoculated i.v. with minimum lethal dose of Candida albicans TA; suspension in 0.5% CMC administered orally once immediately after infection; Reed and Muench method from survival rate 7 days after infection
Procedure: The protective effects of the compound of the present invention against the experimental infection in mice are shown in the following Table 1. Test Method: Five-week-old Crj:CDF₁ mice were inoculated with the minimum lethal dose of Candida albicans TA intravenously. The test compound was suspended in a solution of 0.5% sodium carboxymethylcellulose (CMC). The suspension was administered orally once immediately after infection. The activity was expressed in terms of ED₅₀ values calculated by the Reed and Muench method from the survival rate 7 days after infection.

Point of comparison: Cc1nn([C@H](C)[C@](O)(Cn2cncn2)c2ccc(F)cc2)c(=O)n1-c1ccc(OC(F)(F)C(F)F)cc1 [Example 26, 2-[(1R,2R)-2-(4-fluorophenyl)-2-hydroxy-1-methyl-3-(1H-1,2,4-triazol-1-yl)propyl]-5-methyl-4-[4-(1,1,2,2-tetrafluoroethoxy)phenyl]-3(2H,4H)-1,2,4-triazolone], ED50 0.35 mg/kg. Against it:
- C[C@@H](n1ncn(-c2ccc(OC(F)(F)C(F)F)cc2)c1=O)[C@](O)(Cn1cncn1)c1ccc(F)cc1 [Example 25, 2-[(1R,2R)-2-(4-fluorophenyl)-2-hydroxy-1-methyl-3-(1H-1,2,4-triazol-1-yl)propyl]-4-[4-(1,1,2,2-tetrafluoroethoxy)phenyl]-3(2H,4H)-1,2,4-triazolone] — 1.9-fold higher, 0.65 mg/kg
- C[C@@H](n1cnn(-c2ccc(OC(F)(F)C(F)F)cc2)c1=O)[C@](O)(Cn1cncn1)c1ccc(F)cc1 [Example 27, 4-[(1R,2R)-2-(4-fluorophenyl)-2-hydroxy-1-methyl-3-(1H-1,2,4-triazol-1-yl)propyl]-2-[4-(1,1,2,2-tetrafluoroethoxy)phenyl]-3(2H,4H)-1,2,4-triazolone] — 1.6-fold higher, 0.56 mg/kg
- C[C@@H](n1cnn(-c2ccc(OCC(F)(F)C(F)F)cc2)c1=O)[C@](O)(Cn1cncn1)c1ccccc1F [Example 23, 4-[(1R,2R)-2-(2-fluorophenyl)-2-hydroxy-1-methyl-3-(1H-1,2,4-triazol-1-yl)propyl]-2-[4-(2,2,3,3-tetrafluoropropoxy)phenyl]-3(2H,4H)-1,2,4-triazolone] — 2.2-fold lower, 0.16 mg/kg
- C[C@@H](n1cnn(-c2ccc(OC(F)(F)C(F)F)cc2)c1=O)[C@](O)(Cn1cncn1)c1ccccc1F [Example 22, 4-[(1R,2R)-2-(2-fluorophenyl)-2-hydroxy-1-methyl-3-(1H-1,2,4-triazol-1-yl)propyl]-2-[4-(1,1,2,2-tetrafluoroethoxy)phenyl]-3(2H,4H)-1,2,4-triazolone] — lower, < 0.13 mg/kg
- C[C@@H](n1ncn(-c2ccc(C(F)(F)F)cc2)c1=O)[C@](O)(Cn1cncn1)c1ccccc1F [Example 17, 2-[(1R,2R)-2-(2-fluorophenyl)-2-hydroxy-1-methyl-3-(1H-1,2,4-triazol-1-yl)propyl]-4-(4-trifluoromethylphenyl)-3(2H,4H)-1,2,4-triazolone] — 1.6-fold lower, 0.22 mg/kg
- Cc1nn(-c2ccc(OC(F)(F)C(F)F)cc2)c(=O)n1[C@H](C)[C@](O)(Cn1cncn1)c1ccc(F)cc1F [Example 29, 4-[(1R,2R)-2-(2,4-difluorophenyl)-2-hydroxy-1-methyl-3-(1H-1,2,4-triazol-1-yl)propyl]-5-methyl-2-[4-(1,1,2,2-tetrafluoroethoxy)phenyl]-3(2H,4H)-1,2,4-triazolone] — 5.7-fold higher, 2 mg/kg
- C[C@@H](n1ncn(-c2ccc(OC(F)(F)F)cc2)c1=O)[C@](O)(Cn1cncn1)c1ccccc1F [Example 18, 2-[(1R,2R)-2-(2-fluorophenyl)-2-hydroxy-1-methyl-3-(1H-1,2,4-triazol-1-yl)propyl]-4-(4-trifluoromethoxyphenyl)-3(2H,4H)-1,2,4-triazolone] — 1.9-fold lower, 0.18 mg/kg
- C[C@@H](n1cnn(-c2ccc(OCC(F)(F)C(F)F)cc2)c1=O)[C@](O)(Cn1cncn1)c1ccc(F)cc1 [Example 28, 4-[(1R,2R)-2-(4-fluorophenyl)-2-hydroxy-1-methyl-3-(1H-1,2,4-triazol-1-yl)propyl]-2-[4-(2,2,3,3-tetrafluoropropoxy)phenyl]-3(2H,4H)-1,2,4-triazolone] — 2-fold higher, 0.71 mg/kg
- C[C@@H](n1ncn(-c2ccc(OC(F)(F)C(F)F)cc2)c1=O)[C@](O)(Cn1cncn1)c1ccccc1F [Example 20, 2-[(1R,2R)-2-(2-fluorophenyl)-2-hydroxy-1-methyl-3-(1H-1,2,4-triazol-1-yl)propyl]-4-[4-(1,1,2,2-tetrafluoroethoxy)phenyl]-3(2H,4H)-1,2,4-triazolone] — 1.9-fold lower, 0.18 mg/kg
- C[C@@H](n1ncn(-c2ccc(OCC(F)(F)C(F)F)cc2)c1=O)[C@](O)(Cn1cncn1)c1ccccc1F [Example 16, 2-[(1R,2R)-2-(2-fluorophenyl)-2-hydroxy-1-methyl-3-(1H-1,2,4-triazol-1-yl)propyl]-4-[4-(2,2,3,3-tetrafluoropropoxy)phenyl]-3(2H,4H)-1,2,4-triazolone] — within 1.5-fold, 0.25 mg/kg
- C[C@@H](n1ncn(-c2ccc(OCC(F)(F)F)cc2)c1=O)[C@](O)(Cn1cncn1)c1ccccc1F [Example 19, 2-[(1R,2R)-2-(2-fluorophenyl)-2-hydroxy-1-methyl-3-(1H-1,2,4-triazol-1-yl)propyl]-4-[4-(2,2,2-trifluoroethoxy)phenyl]-3(2H,4H)-1,2,4-triazolone] — 1.9-fold lower, 0.18 mg/kg
- C[C@@H](n1ncn(-c2ccc(N3CCN(c4ccc(OC(F)(F)C(F)F)cc4)CC3)cc2)c1=O)[C@](O)(Cn1cncn1)c1ccc(F)cc1F [Example 15, 2-[(1R,2R)-2-(2,4-difluorophenyl)-2-hydroxy-1-methyl-3-(1H-1,2,4-triazol-1-yl)propyl]-4-[4-[4-[4-(1,1,2,2-tetrafluoroethoxy)phenyl]-1-piperazinyl]phenyl]-3(2H,4H)-1,2,4-triazolone] — 8-fold higher, 2.8 mg/kg
- Cc1nn([C@H](C)[C@](O)(Cn2cncn2)c2ccccc2F)c(=O)n1-c1ccc(OC(F)(F)C(F)F)cc1 [Example 21, 2-[(1R,2R)-2-(2-fluorophenyl)-2-hydroxy-1-methyl-3-(1H-1,2,4-triazol-1-yl)propyl]-5-methyl-4-[4-(1,1,2,2-tetrafluoroethoxy)phenyl]-3(2H,4H)-1,2,4-triazolone] — 1.7-fold lower, 0.21 mg/kg
